From patent publication US20250345295A1, “LMK235 COMPOSITIONS AND METHODS” (UNM Rainforest Innovations, priority 2024, published 2025)

Test system: mice
Test: Conditioned place preference (CPP) test of addictive potential
Assay type: in vivo, mouse
Settings: 5 mg/kg, three conditioning days
Source text: The conditioned place preference (CPP) test was used to compare morphine and LMK235 post-drug behaviors to baseline. Time spent in their assigned drug administration chamber post-drug was divided by the time spent in the chamber during the baseline recording. A score of 1 meant that there was no difference in time spent in either chamber after dosing. A score greater than 1 meant more time was spent in the assigned drug chamber, and a score less than 1 meant less time was spent in the assigned drug chamber.
Mice were assigned either vehicle, morphine (5 mg/kg) or LMK235 (5 mg/kg) and assigned cubicle designation for groups (n=3) as follows: Vehicle-Blank, Vehicle-Striped, Morphine-Blank, Morphine-Striped, LMK-Blank, LMK-Striped. For baseline collection, mice were placed in the middle of the box and allowed access to both chambers for 15 minutes. Time spent in each chamber was recorded. For the subsequent three test days, mice were injected with their assigned drug and placed in their assigned chamber, without access to the other chamber, for 30 minutes. On the final test day, mice were placed in the middle of the box and allowed access to both chambers for 15 minutes. Time spent in each chamber was recorded.

CN1CC[C@]23c4c5ccc(O)c4O[C@H]2[C@@H](O)C=C[C@H]3[C@H]1C5 [morphine]
time in assigned drug chamber post-drug versus baseline (addictive potential): spent more time in their assigned drug chamber
